The values below are quoted from earlier work in US12569529B2, “Natural combination products and methods for regulation of kidney and excretory system function” (Pure Care Pro LLC, priority 2018, dated 2026).

Data set [1] relates to kidney proximal tubular cells. Conditions: kidney proximal tubular cells in culture.

Take `Cc1c(C)c2c(c(C)c1O)CC[C@@](C)(CCC[C@H](C)CCC[C@H](C)CCCC(C)C)O2` [α-tocopherol]: the “cisplatin-induced reactive oxygen species (ROS)” value in data set [1] is “decreased”. In addition, the cell viability entry in data set [1] (cisplatin) is “increased”.
As to vitamin E, the ADMA levels entry in the data set on patients with CKD was “reductions”.
